Converted amounts (≈) assume the structure as drawn.
Key:
P. aeruginosa (PA) = assay: MIC by microdilution, 36 clinical and laboratory strains with known efflux phenotype; type: cell-based
Procedure, shortened: (§1)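 Microdilution MICs against P. aeruginosa, including reference PAO1 and efflux-overexpressing clinical PA12, in cation-adjusted Mueller-Hinton broth or RPMI with 10% fetal calf serum, or MH broth with increasing serum. PaβN (50 mg/L) served as efflux inhibitor and EGTA (5 mM) as outer-membrane disruptor.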

P. aeruginosa PA12 = assay: MIC by microdilution with PaβN or EGTA, clinical isolate overexpressing efflux pumps; type: cell-based; settings: Pseudomonas aeruginosa
Procedure, shortened: as §1

[1] = system: MRSA strains from CF patients; assay: Microdilution MICs against 40 MRSA strains from CF patients; type: cell-based, S. aureus; settings: Staphylococcus aureus, 40 MRSA strains from CF patients
TNFα release = assay: LPS-induced TNFα release in PMA-differentiated U937 cells (ELISA); type: cell-based, human
Procedure, shortened: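 U937 cells differentiated to macrophage-like state with PMA (50 ng/mL, 48 h) in RPMI/10% FBS, then stimulated with LPS in presence of macrolides. TNFα in supernatant measured by sandwich ELISA; means±SEM of three experiments, IC50 computed from cytokine inhibition.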

SMILES: CC[C@H]1OC(=O)[C@H](C)[C@@H](O[C@H]2C[C@@](C)(OC)[C@@H](O)[C@H](C)O2)[C@H](C)[C@@H](O[C@@H]2O[C@H](C)C[C@H](N(C)C)[C@H]2O)[C@](C)(O)C[C@@H](C)CN(C)[C@H](C)[C@@H](O)[C@]1(C)O [AZM, azithromycin]
- MIC (P. aeruginosa (PA); strain 1, efflux AB+, MHB): 128 µg/mL (≈ 171 µM)
- MIC (P. aeruginosa (PA); strain 1, efflux AB+, RPMI): 4 µg/mL (≈ 5.34 µM)
- MIC (P. aeruginosa (PA); strain 2, efflux CD+, MHB): 512 µg/mL (≈ 684 µM)
- MIC (P. aeruginosa (PA); strain 2, efflux CD+, RPMI): 4 µg/mL (≈ 5.34 µM)
- MIC (P. aeruginosa (PA); strain 3, efflux EF+, MHB): 64 µg/mL (≈ 85.4 µM)
- MIC (P. aeruginosa (PA); strain 3, efflux EF+, RPMI): 2 µg/mL (≈ 2.67 µM)
- MIC (P. aeruginosa (PA); strain 4, efflux XY+, MHB): 256 µg/mL (≈ 342 µM)
- MIC (P. aeruginosa (PA); strain 4, efflux XY+, RPMI): 2 µg/mL (≈ 2.67 µM)
- MIC (P. aeruginosa (PA); strain 11, efflux AB + CD+, MHB): 128 µg/mL
- MIC (P. aeruginosa (PA); strain 11, efflux AB + CD+, RPMI): 2 µg/mL
- MIC (P. aeruginosa (PA); strain 12, efflux AB + CD + EF + XY+, MHB): 256 µg/mL
- MIC (P. aeruginosa (PA); strain 12, efflux AB + CD + EF + XY+, RPMI): 2 µg/mL
- MIC (P. aeruginosa (PA); strain 16, efflux AB + XY+, MHB): 256 µg/mL
- MIC (P. aeruginosa (PA); strain 16, efflux AB + XY+, RPMI): 4 µg/mL
- MIC (P. aeruginosa (PA); strain 21, efflux AB+, MHB): 256 µg/mL (≈ 342 µM)
- MIC (P. aeruginosa (PA); strain 21, efflux AB+, RPMI): 2 µg/mL (≈ 2.67 µM)
- MIC (P. aeruginosa (PA); strain 22, efflux XY+, MHB): 256 µg/mL (≈ 342 µM)
- MIC (P. aeruginosa (PA); strain 22, efflux XY+, RPMI): 2 µg/mL (≈ 2.67 µM)
- MIC (P. aeruginosa (PA); strain 40, efflux EF+, MHB): 256 µg/mL (≈ 342 µM)
- MIC (P. aeruginosa (PA); strain 40, efflux EF+, RPMI): 2 µg/mL (≈ 2.67 µM)
- MIC (P. aeruginosa (PA); strain 41, efflux CD+, MHB): 256 µg/mL (≈ 342 µM)
- MIC (P. aeruginosa (PA); strain 41, efflux CD+, RPMI): 2 µg/mL (≈ 2.67 µM)
- MIC (P. aeruginosa (PA); strain 48, efflux CD + EF + XY+, MHB): 256 µg/mL
- MIC (P. aeruginosa (PA); strain 48, efflux CD + EF + XY+, RPMI): 2 µg/mL
- MIC (P. aeruginosa (PA); strain 49, efflux CD + EF + XY+, MHB): 256 µg/mL
- MIC (P. aeruginosa (PA); strain 49, efflux CD + EF + XY+, RPMI): 2 µg/mL
- MIC (P. aeruginosa (PA); strain 63, efflux AB + EF + XY+, MHB): 256 µg/mL
- MIC (P. aeruginosa (PA); strain 63, efflux AB + EF + XY+, RPMI): 2 µg/mL
- MIC (P. aeruginosa (PA); strain 68, efflux AB + XY+, MHB): 256 µg/mL
- MIC (P. aeruginosa (PA); strain 68, efflux AB + XY+, RPMI): 2 µg/mL
- MIC (P. aeruginosa (PA); strain 133, efflux EF + XY+, MHB): 256 µg/mL
- MIC (P. aeruginosa (PA); strain 133, efflux EF + XY+, RPMI): 4 µg/mL
- MIC (P. aeruginosa (PA); strain 156, efflux EF + XY+, MHB): 512 µg/mL
- MIC (P. aeruginosa (PA); strain 156, efflux EF + XY+, RPMI): 4 µg/mL
- MIC (P. aeruginosa (PA); strain 168B, efflux CD + XY+, MHB): 512 µg/mL
- MIC (P. aeruginosa (PA); strain 168B, efflux CD + XY+, RPMI): 4 µg/mL
- MIC (P. aeruginosa (PA); strain 207, efflux AB + EF + XY+, MHB): 512 µg/mL
- MIC (P. aeruginosa (PA); strain 207, efflux AB + EF + XY+, RPMI): 4 µg/mL
- MIC (P. aeruginosa (PA); strain 266B, efflux AB + CD+, MHB): 256 µg/mL
- MIC (P. aeruginosa (PA); strain 266B, efflux AB + CD+, RPMI): 2 µg/mL
- MIC (P. aeruginosa (PA); strain 333A, efflux AB + EF+, MHB): 256 µg/mL
- MIC (P. aeruginosa (PA); strain 333A, efflux AB + EF+, RPMI): 2 µg/mL
- MIC (P. aeruginosa (PA); strain 335, efflux AB + EF+, MHB): 512 µg/mL
- MIC (P. aeruginosa (PA); strain 335, efflux AB + EF+, RPMI): 4 µg/mL
- MIC (P. aeruginosa (PA); strain 391, efflux EF−, MHB): 128 µg/mL (≈ 171 µM)
- MIC (P. aeruginosa (PA); strain 391, efflux EF−, RPMI): 2 µg/mL (≈ 2.67 µM)
- MIC (P. aeruginosa (PA); strain 392, efflux CD−, MHB): 128 µg/mL (≈ 171 µM)
- MIC (P. aeruginosa (PA); strain 392, efflux CD−, RPMI): 2 µg/mL (≈ 2.67 µM)
- MIC (P. aeruginosa (PA); strain 394, efflux XY−, MHB): 256 µg/mL (≈ 342 µM)
- MIC (P. aeruginosa (PA); strain 394, efflux XY−, RPMI): 4 µg/mL (≈ 5.34 µM)
- MIC (P. aeruginosa (PA); strain 395, efflux HI−, MHB): 128 µg/mL (≈ 171 µM)
- MIC (P. aeruginosa (PA); strain 395, efflux HI−, RPMI): 2 µg/mL (≈ 2.67 µM)
- MIC (P. aeruginosa (PA); strain 396, ompH−, MHB): 64 µg/mL (≈ 85.4 µM)
- MIC (P. aeruginosa (PA); strain 396, ompH−, RPMI): 2 µg/mL (≈ 2.67 µM)
- MIC (P. aeruginosa (PA); strain 397, efflux AB−, MHB): 8 µg/mL (≈ 10.7 µM)
- MIC (P. aeruginosa (PA); strain 397, efflux AB−, RPMI): 1 µg/mL (≈ 1.34 µM)
- MIC (P. aeruginosa (PA); strain 398, efflux CD−, MHB): 16 µg/mL (≈ 21.4 µM)
- MIC (P. aeruginosa (PA); strain 398, efflux CD−, RPMI): 1 µg/mL (≈ 1.34 µM)
- MIC (P. aeruginosa (PA); strain 399, efflux AB − EF−, MHB): 16 µg/mL (≈ 21.4 µM)
- MIC (P. aeruginosa (PA); strain 399, efflux AB − EF−, RPMI): 2 µg/mL (≈ 2.67 µM)
- MIC (P. aeruginosa (PA); strain 400, efflux XY−, MHB): 8 µg/mL (≈ 10.7 µM)
- MIC (P. aeruginosa (PA); strain 400, efflux XY−, RPMI): 2 µg/mL (≈ 2.67 µM)
- MIC (P. aeruginosa (PA); strain 401, ompH−, MHB): 8 µg/mL (≈ 10.7 µM)
- MIC (P. aeruginosa (PA); strain 401, ompH−, RPMI): 2 µg/mL (≈ 2.67 µM)
- MIC (P. aeruginosa (PA); strain 403, efflux AB − CD − EF − XY−, MHB): 8 µg/mL (≈ 10.7 µM)
- MIC (P. aeruginosa (PA); strain 403, efflux AB − CD − EF − XY−, RPMI): 2 µg/mL (≈ 2.67 µM)
- MIC (P. aeruginosa (PA); strain 405, efflux AB − CD − EF − XY−, MHB): 8 µg/mL (≈ 10.7 µM)
- MIC (P. aeruginosa (PA); strain 405, efflux AB − CD − EF − XY−, RPMI): 2 µg/mL (≈ 2.67 µM)
- MIC (P. aeruginosa (PA); strain 434, efflux AB + CD + XY+, MHB): 512 µg/mL
- MIC (P. aeruginosa (PA); strain 434, efflux AB + CD + XY+, RPMI): 4 µg/mL
- MIC (P. aeruginosa (PA); strain PAO1, REFERENCE, MHB): 256 µg/mL (≈ 342 µM)
- MIC (P. aeruginosa (PA); strain PAO1, REFERENCE, RPMI): 4 µg/mL (≈ 5.34 µM)
- MIC (P. aeruginosa PA12; PA12, PA12, CA-MHB, EGTA 5 mM): 256 µg/mL (≈ 342 µM)
- MIC (P. aeruginosa PA12; PA12, PA12, CA-MHB, PaβN 50 mg/L): 2 µg/mL (≈ 2.67 µM)
- MIC (P. aeruginosa PA12; PA12, PA12, CA-MHB, control conditions (CT)): 256 µg/mL (≈ 342 µM)
- MIC (P. aeruginosa PA12; PA12, PA12, RPMI, EGTA 5 mM): 0.5 µg/mL (≈ 0.668 µM)
- MIC (P. aeruginosa PA12; PA12, PA12, RPMI, PaβN 50 mg/L): 2 µg/mL (≈ 2.67 µM)
- MIC (P. aeruginosa PA12; PA12, PA12, RPMI, control conditions (CT)): 2 µg/mL (≈ 2.67 µM)
- MIC50 ([1]; read-out: MIC50): ≥ 32 µg/mL
- MIC90 ([1]; read-out: MIC90): ≥ 32 µg/mL
- effect on TNFα production (TNFα release; 33 to 333 μM (FIG. 3)): did not inhibit
- IC50 (TNFα release; Homo sapiens, U-937, U937 cells, at 333 μM, read-out: IC50, LPS-induced TNFα release: NE at 333 μM): > 333 µM
